Laboratory results taken from patent US20100329994A1, “Use of Deuterium Dioxide for Treating Hyperproliferative Skin Diseases” (priority 2006, published 2010).

What was measured:
[1] = system: human TE 354.T epithelial cell lines derived from the human basal-cell carcinoma; test: Proliferation rate (average cell-doubling rate) of human basal-cell carcinoma cell line in culture; assay type: cell-based
Description: (§1) The influence of D2O and H2O on the proliferation rate of carcinoma cells and normal cells was investigated on cell cultures. For this purpose, human TE 354.T epithelial cell lines derived from the human basal-cell carcinoma (American Type Culture Collection (ATCC), Rockville, USA) were used. Normal human epithelial cell lines from the skin of the same individual (TE 353.sk from ATCC) were used as control. The cells were transferred into 96-well cell culture plates (10^4 cells per well) and allowed to grow to subconfluence. The medium used for this purpose was Dulbecco's modified Eagles medium (DMEM) to which 10% heat-deactivated fetal calf serum (LGC Promochem, Wesel, Germany) was added. The medium was changed, for the first time 2 days after introduction of the cells and then every 48 hours. At the subconfluent stage of the cell culture of the two cell lines, 30% D2O, based on the complete medium, was added to the medium. […] From these values, the average cell-doubling rate n was determined from the gradient of a graphical plot of log {cell count} vs. time in accordance with the equation n=3.32 (log Nt−log N0). Here, Nt is the cell count measured after time t, and N0 is the cell count determined at the time when D2O or H2O was added (zero point measurement). The average cell-doubling rate was determined by averaging the results over in each case 6 wells per time point.

[2] = system: normal human epithelial cell lines from the skin (TE 353.sk); test: Proliferation rate (average cell-doubling rate) of normal human skin epithelial cell line in culture; conditions: 30% D2O based on the complete medium, counted from 48 h then every 24 h for a week, 6 wells
Description: as §1

## [2H]O[2H] [D2O, deuterium dioxide]
[1]; 30% D2O added to medium, versus H2O
  reduction in <n> for the carcinoma cells compared with normal cells: disproportionately large reduction
[1]; 30% D2O based on the complete medium, TE 354.T, counted from 48 h then every 24 h for a week, 6 wells
  average cell-doubling rate <n> D2O, carcinoma cells: 0.23 ± 0.02
[2]
  average cell-doubling rate <n> D2O, normal cells: 0.41 ± 0.04
